Source: US11628166B2, “Therapeutic uses of compounds having combined sert, 5-HT3 and 5-HT1a activity” (H. Lundbeck A/S, priority 2007, dated 2023)

Assays:
Solubility in water = format: physicochemical
[1] = Microdialysis, extracellular acetylcholine levels in brain of freely moving rats; format: in vivo, rat; details: 2.5-10 mg/kg s.c.
Protocol: The animals were administered 1-[2-(2,4-dimethylphenylsulfanyl)phenyl]piperazine, HBr salt.
Male Sprague-Dawley rats, initially weighing 275-300 g, were used. The animals were housed under a 12-hr light/dark cycle under controlled conditions for regular in-door temperature (21±2° C.) and humidity (55±5%) with food and tap water available ad libitum.
Rats were anaesthetised with hypnorm/dormicum (2 ml/kg) and intracerebral guide cannulas (CMA/12) were stereotaxically implanted into the brain, aiming at positioning the dialysis probe tip in the ventral hippocampus (co-ordinates: 5.6 mm posterior to bregma, lateral −5.0 mm, 7.0 mm ventral to dura) or in the prefrontal cortex (co-ordinates: 3.2 mm anterior to bregma; lateral, 0.8 mm; 4.0 mm ventral to dura). […] The body temperature of the animals was monitored by rectal probe and maintained at 37° C. […]
The compound dissolved in 10% HPbetaCD and injected subcutaneously (2.5-10 mg/kg). Doses are expressed as mg salt/kg body weight. […]
Concentration of acetylcholine (ACh) in the dialysates was analysed by means of HPLC with electrochemical detection using a mobile phase consisting of 100 mM disodium hydrogenphosphate, 2.0 mM octane sulfonic acid, 0.5 mM tetramethylammonium chloride and 0.005% MB (ESA), pH 8.0. […] The latter was detected electrochemical by using a platinum electrode (Analytical cell: ESA, model 5040). […]

[2] = Contextual fear conditioning in rats; format: in vivo, rat; details: for time spent freezing during the retention test: test 24 h after acquisition
Excerpt: The compound administered in the present experiment was 1-[2-(2,4-dimethylphenyl-sulfanyl)phenyl]piperazine HBr salt.
We have studied the effect of the compound on acquisition, consolidation and recall of contextual fear conditioning in rats. In the fear conditioning paradigm animals learn to associate a neutral environment (context, the training chamber, CS) with an aversive experience (an electrical foot-shock, US). During re-exposure to the training chamber, animals express a freezing behaviour, which is taken as a direct measure of the fear-related memory [Pavlov J. Biol. Sci., 15, 177-182, 1980]. […] Neurosci., 106, 274-285, 1992].
Adult male Sprague-Dawley rats (weighing 250-300 g at time of training) from Charles River Laboratories, housed two per cage under a 12 h light/dark cycle, were used. Food and water were available ad libitum. Rats were used 1 week after arrival. The compound was dissolved in 10% HPbetaCD and injected subcutaneously. The drug was administered in a volume of 2.5 ml/kg.
Training and testing were conducted in a soundproof chamber (30×20×40 cm) housed in an isolated room and connected to a ventilation system. Illumination was provided by a white light (60 Watt). The floor of the chamber consisted of a metal grid attached to an electric shock generator. Prior to training and testing, the chamber was cleaned with a 70% ethanol solution. A video camera allowed for behavioral observations and recording of the training session for off-line analysis.
During the acquisition animals were allowed to freely explore the novel environment for a 1 min habituation period, which co-terminated with one inescapable foot-shock (unconditioned stimulus, US) through the electrifiable grid floor. […] Animals remained in the conditioning chamber for another 60 s after the US. Freezing behaviour was scored during the first 58 s (pre-shock acquisition; experimenter blinded to groups) to determine baseline-freezing responses to the context. At the end of the acquisition animals were gently removed and placed into their home cages. After 24 h the same animals were reintroduced into the training context (fear conditioning chamber) and a 2 min retention test was performed. During this period no foot shocks were applied. Freezing behaviour was scored during the whole test period with the experimenter blinded to groups and presented as percent of total test period.

[3] = Hygroscopicity / water absorption on exposure to humidity; format: physicochemical
[4] = Mouse intradermal formalin test; format: in vivo; details: ~20-30 minutes after formalin
Protocol: In this model, mice receive an injection of formalin (4.5%, 20 μl) into the left hind paw. The irritation caused by the formalin injection elicits a characteristic biphasic behavioural response, as quantified by the amount of time spent licking the injured paw.
The first phase (˜0-10 minutes) represents direct chemical irritation and nociception, whereas the second phase (˜20-30 minutes) is thought to represent pain of […] origin. The two phases are separated by a quiescent period in which behaviour returns to normal. The effectiveness of test compounds to reduce the painful stimuli is assessed by counting the amount of time spent licking the injured paw in the two phases.

[5] = molecular target: Human serotonin transporter (Homo sapiens, UniProt P31645); assay: Human serotonin transporter, blockade of 5-HT uptake; format: biochemical
[6] = Clinical trial, HAM-D items 4, 5 and 6 (insomnia early, middle, late); format: in vivo, human; details: 5 and 10 mg daily vs placebo, 6 weeks, approx. 100 patients per arm
Protocol: (§1) The HAM-D scale may be used to assess the severity of depression in patients by means of a 24 items questionnaire. Item 4, 5 and 6 of the scale relate to how the patients sleep, i.e., is it easy to fall asleep (insomnia Early), does the patient wake up during the night (Insomnia Middle), and does the patient wake up early in the morning (Insomnia Late). The compound was tested at 5 and 10 mg daily against placebo with approximately 100 patients per arm. […] It is well-known that sleep disturbances are a general adverse effect of most antidepressants. In particular SSRI's and compounds which inhibit the noradrenaline transporter are reported to give rise to problems with sleep initiation and maintenance and problems with insomnia are also often reported [Int.Clin.Psychpharm., 21 (suppl 1), S25-S29, 2006]. Others report that such compounds give rise to suppressed REM sleep, increased sleep latency, less efficient sleep, increase in nocturnal awakenings, and fragmentation of sleep [Hum.Psychopharm.Clin.Exp., 20, 533-559, 2005].

[7] = Clinical trial, sexually related adverse effects reported by patients; format: in vivo, human
Protocol: as §1
The above mentioned clinical trial also captured sexual adverse effects reported by the patients.

Sequence of Human serotonin transporter (P31645 whole entry): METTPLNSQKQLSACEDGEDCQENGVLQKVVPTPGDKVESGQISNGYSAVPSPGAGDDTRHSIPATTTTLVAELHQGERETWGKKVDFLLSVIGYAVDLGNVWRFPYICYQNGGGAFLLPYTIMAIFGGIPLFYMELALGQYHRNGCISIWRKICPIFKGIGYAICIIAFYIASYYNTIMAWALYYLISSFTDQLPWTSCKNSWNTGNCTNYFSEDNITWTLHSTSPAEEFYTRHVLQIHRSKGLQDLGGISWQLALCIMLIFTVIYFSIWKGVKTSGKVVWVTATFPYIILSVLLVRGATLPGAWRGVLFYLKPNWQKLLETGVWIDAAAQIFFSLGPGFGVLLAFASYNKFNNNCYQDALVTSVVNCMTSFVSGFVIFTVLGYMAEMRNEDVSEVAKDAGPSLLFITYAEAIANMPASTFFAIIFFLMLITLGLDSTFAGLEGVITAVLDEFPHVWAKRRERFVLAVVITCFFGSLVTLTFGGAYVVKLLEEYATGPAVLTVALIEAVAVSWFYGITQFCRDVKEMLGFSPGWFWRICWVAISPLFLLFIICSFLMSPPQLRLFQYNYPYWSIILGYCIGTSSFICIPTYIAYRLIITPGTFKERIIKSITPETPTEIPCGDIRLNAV

## Br.Cc1ccc(Sc2ccccc2N2CCNCC2)c(C)c1 [alpha form of the hydrobromide]
Solubility in water
  solubility in water: 2000 µg/mL

## Br.Cc1ccc(Sc2ccccc2N2CCNCC2)c(C)c1 [1-[2-(2,4-dimethylphenylsulfanyl)phenyl]piperazine HBr salt]
[1]; rat prefrontal cortex
  extra-cellular levels of ACh in prefrontal cortex: significantly increased
[1]; rat ventral hippocampus
  extra-cellular levels of ACh in ventral hippocampus: significantly increased
[2]; 5 mg/kg s.c. 1 h prior to acquisition, n=6
  time spent freezing during the retention test: 39.24±13.76%
[2]; 5 mg/kg s.c. 1 h prior to the retention test, n=9, p<0.05
  freezing behaviour during the memory test: 12.86±3.57%
[2]; 5 mg/kg s.c. after the acquisition session, n=8, p<0.05
  time spent freezing during the retention test: 45.58±4.50%
[2]; 10 mg/kg s.c. 1 h prior to acquisition, n=10, p<0.01
  time spent freezing during the retention test: 52.15±5.68%
[2]; 1, 5 and 10 mg/kg s.c., 1 h prior to acquisition
  baseline freezing behaviour before the foot shock: does not affect baseline freezing behaviour

## Cc1ccc(Sc2ccccc2N2CCNCC2)c(C)c1 [Crystalline base, 1-[2-(2,4-dimethylphenylsulfanyl)-phenyl]piperazine]
[3]
  hygroscopicity: not hygroscopic

## Br.Cc1ccc(Sc2ccccc2N2CCNCC2)c(C)c1 [beta form of the hydrobromide]
Solubility in water
  solubility in water: 1200 µg/mL

## Cc1ccc(Sc2ccccc2N2CCNCC2)c(C)c1 [compound I, 1-[2-(2,4-dimethylphenyl-sulfanyl)-phenyl]piperazine]
[4]
  second phase pain scores (time spent licking the paw): significant reduction
[5]
  IC50: 5.4 nM
[6]
  change in sleep pattern, HAM-D items 4-6: large and dose dependent improvement of the sleep pattern
[7]; 5 mg daily
  number of patients reporting Anorgasmia: 0
  number of patients reporting Ejaculation delayed: 0
  number of patients reporting Erectile dysfunction: 0
  number of patients reporting Libido decreased: 1
  number of patients reporting Loss of libido: 1
  number of patients reporting Orgasm abnormal: 0
  number of patients reporting Orgasmic sensation decreased: 0
[7]; 10 mg daily
  number of patients reporting Anorgasmia: 0
  number of patients reporting Ejaculation delayed: 0
  number of patients reporting Erectile dysfunction: 0
  number of patients reporting Libido decreased: 1
  number of patients reporting Loss of libido: 0
  number of patients reporting Orgasm abnormal: 0
  number of patients reporting Orgasmic sensation decreased: 0

## Br.Cc1ccc(Sc2ccccc2N2CCNCC2)c(C)c1 [gamma form of the hydrobromide]
[3]; 30% RH at room temperature
  water absorbed: about 2%

## Br.Cc1ccc(Sc2ccccc2N2CCNCC2)c(C)c1 [hemi hydrate of the hydrobromide]
[3]; room temperature and 95% RH
  water content: about 3.7%
